In patent US8044211B2 (Chroma Therapeutics Ltd., priority 2006, dated 2011) one finds IC50 data, which are given here for 21 molecules.

Read-outs that look alike come from different tables or passages of the source.

Assay [1] relates to THP-1 TNFα release. The assay is described as follows: LPS-stimulation of THP-1 cells, TNF-α by ELISA. The following applies: IC50 range, LPS 1 μg/ml, 6 hrs, read-out: Inhibitor activity versus THP-1 TNFα release. Format: cell-based. As for the experimental part:
THP-1 cells were plated in 100 μl at a density of 4×10^4 cells/well in V-bottomed 96 well tissue culture treated plates and incubated at 37° C. in 5% CO2 for 16 hrs. 2 hrs after the addition of the inhibitor in […], of tissue culture media, the cells were stimulated with LPS (E. coli strain 005:B5, Sigma) at a final concentration of 1 μg/ml and incubated at 37° C. in 5% CO2 for 6 hrs. TNF-α levels were measured from cell-free supernatants by sandwich ELISA (R&D Systems #QTA00B).

Assay [2] deals with T1, p38 MAP Kinase a (Homo sapiens, UniProt Q16539).
T1 construct: purchased Upstate (Dundee UK)
The assay is described as follows: p38 MAP Kinase activity, radiometric filter-binding assay (Upstate). The following applies: IC50 range; ATP at or close to Km; read-out: Inhibitor activity versus p38 MAPKa. Format: biochemical. The method, then: The ability of compounds to inhibit p38 MAP a Kinase activity was measured in an assay performed by Upstate (Dundee UK). In a final reaction volume of 25 μL, p38 MAP Kinase a (5-10 mU) is incubated with 25 mM Tris pH 7.5, 0.002 mMEGTA, 0.33 mg/mL myelin basic protein, 10 mM MgAcetate and [g-33P-ATP] (specific activity approx. 500 cpm/pmol, concentration as required). The reaction is initiated by the addition of the MgATP mix. After incubation for 40 minutes at room temperature, the reaction is stopped by the addition of 5 μL of a 3% phosphoric acid solution. 10 μL of the reaction is then spotted onto a P30 filtermat and washed three times for 5 minutes in 75 mM phosphoric acid and once in methanol prior to drying and scintillation counting.
Duplicate data points are generated from a ⅓ log dilution series of a stock solution in DMSO. Nine dilutions steps are made from a top concentration of 10 μM, and a ‘no compound’ blank is included. The standard radiometric filter-binding assay is performed at an ATP concentration at, or close to, the Km. Data from scintillation counts are collected and subjected to free-fit analysis by Prism software. From the curve generated, the concentration giving 50% inhibition is determined and reported.

T1 sequence (Q16539 whole entry): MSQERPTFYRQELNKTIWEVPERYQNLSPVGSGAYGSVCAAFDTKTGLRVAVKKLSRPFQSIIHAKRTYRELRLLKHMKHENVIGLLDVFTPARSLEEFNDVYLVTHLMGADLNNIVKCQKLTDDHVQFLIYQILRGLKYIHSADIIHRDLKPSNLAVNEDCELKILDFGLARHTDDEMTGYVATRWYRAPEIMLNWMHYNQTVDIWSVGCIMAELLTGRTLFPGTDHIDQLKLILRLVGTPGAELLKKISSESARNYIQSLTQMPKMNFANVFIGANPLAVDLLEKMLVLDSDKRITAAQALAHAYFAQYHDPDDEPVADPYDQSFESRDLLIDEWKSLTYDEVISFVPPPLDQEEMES

Take `Nc1c(C(=O)c2ccc(F)cc2)ccc(=O)n1-c1ccc(CN[C@H](C(=O)OC2CCCC2)c2ccccc2)cc1` [Example 1, Cyclopentyl(S)-{4-[6-Amino-5-(4-fluorobenzoyl)-2-oxo-2H-pyridin-1-yl]benzylamino}phenylacetate]: the IC50 in assay [1] (Homo sapiens, THP-1) was above 1000 nM; in assay [2] it was 100 to 1000 nM.
Turning to `CC(C)C[C@H](NCCc1ccc(-n2c(N)c(C(=O)c3ccc(F)cc3F)ccc2=O)cc1)C(=O)OC(C)(C)C` [Example 60, tert-Butyl N-[2-(4-{6-amino-5-[(2,4-difluorophenyl)carbonyl]-2-oxopyridin-1(2H)-yl}phenyl)ethyl]-L-leucinate], the IC50 in assay [1] (Homo sapiens, THP-1) was below 100 nM; in assay [2] it was 100 to 1000 nM.
As to `Nc1c(C(=O)c2ccc(F)cc2F)ccc(=O)n1-c1c(F)cc(OCCCN[C@@H](C(=O)OC2CC3CCC2C3)c2ccccc2)cc1F` (stereo partly drawn) [Example 44, Bicyclo[2.2.1]hept-2-yl (2R)-[(3-{4-[6-amino-5-(2,4-difluorobenzoyl)-2-oxopyridin-1(2H)-yl]-3,5-difluorophenoxy}propyl)amino](phenyl)acetate], the IC50 is below 100 nM in assay [1] (Homo sapiens, THP-1) and 100 to 1000 nM in assay [2].
Consider `Cc1cc(C(=O)c2ccc(=O)n(-c3ccc(CN[C@@H](CC(C)C)C(=O)OC4CCCC4)cc3)c2N)ccc1F` [Example 6, Cyclopentyl(S)-2-{4-[6-Amino-5-(3-Methyl-4-fluorobenzoyl)-2-oxo-2H-pyridin-1-yl]benzylamino}-4-methylpentanoate], for which the IC50 is above 1000 nM in assay [1] (Homo sapiens, THP-1) and 100 to 1000 nM in assay [2].
For `Nc1c(C(=O)c2ccc(F)cc2)ccc(=O)n1-c1ccc(OCCCN[C@@H](Cc2ccccc2)C(=O)OC2CCCC2)cc1` [Example 24, Cyclopentyl(S)-2-(3-{4-[6-Amino-5-(4-fluorobenzoyl)-2-oxo-2H-pyridin-1-yl]phenoxy}propylamino)-3-phenylpropionate], in that order: 100 to 1000 nM and below 100 nM.
As for `CC(C)C[C@@H](NCCCOc1cc(F)c(-n2c(N)c(C(=O)c3ccc(F)cc3F)ccc2=O)c(F)c1)C(=O)OC1CCCC1` [Example 50, Cyclopentyl N-(3-{4-[6-amino-5-(2,4-difluorobenzoyl)-2-oxopyridin-1(2H)-yl]-3,5-difluorophenoxy}propyl)-D-leucinate], the IC50 was below 100 nM in assay [1] (Homo sapiens, THP-1) and below 100 nM in assay [2].
As to `CC(C)C[C@H](NCCc1ccc(-n2c(N)c(C(=O)c3ccc(Cl)cc3)ccc2=O)cc1)C(=O)OC1CCCC1` [Example 65, Cyclopentyl N-[2-(4-{6-amino-5-[(4-chlorophenyl)carbonyl]-2-oxopyridin-1(2H)-yl}phenyl)ethyl]-L-leucinate], the IC50 in assay [1] (Homo sapiens, THP-1) was below 100 nM; in assay [2], 100 to 1000 nM.
Consider `Nc1c(C(=O)c2ccc(F)cc2F)ccc(=O)n1-c1ccc(CN[C@H](C(=O)OC2CCCC2)c2ccccc2)cc1` [Example 7, Cyclopentyl(S)-{4-[6-Amino-5-(2,4-difluorobenzoyl)-2-oxo-2H-pyridin-1-yl]benzylamino}phenylacetate], for which the IC50 in assay [1] (Homo sapiens, THP-1) was above 1000 nM; in assay [2] it was below 100 nM.
As to `CC(C)C[C@H](NC(=O)COc1ccc(-n2c(N)c(C(=O)c3ccc(F)cc3)ccc2=O)cc1)C(=O)OC1CCCC1` [Example 56, Cyclopentyl N-({4-[6-amino-5-(4-fluorobenzoyl)-2-oxopyridin-1(2H)-yl]phenoxy}acetyl)-L-leucinate], the IC50 is above 1000 nM in assay [1] (Homo sapiens, THP-1) and 100 to 1000 nM in assay [2].
Regarding `Nc1c(C(=O)c2ccc(F)cc2)ccc(=O)n1C1CCC(N[C@@H](Cc2ccccc2)C(=O)OC2CCCC2)CC1` (single isomer, unassigned) [Example 35], the IC50 was above 1000 nM in assay [1] and 100 to 1000 nM in assay [2].
On to `Nc1c(C(=O)c2ccc(F)cc2F)ccc(=O)n1-c1ccc(OCCCN[C@H](C(=O)OC2CCCC2)c2ccccc2)cc1` [Example 28, Cyclopentyl(S)-(3-{4-[6-Amino-5-(2,4-difluorobenzoyl)-2-oxo-2H-pyridin-1-yl]1-phenoxy}propylamino)phenyl acetate], for which the IC50 in assay [1] (Homo sapiens, THP-1) was below 100 nM; in assay [2], below 100 nM.
As to `Nc1c(C(=O)c2ccc(F)cc2F)ccc(=O)n1-c1ccc(OCCCN[C@@H](Cc2ccccc2)C(=O)OC2CCCC2)cc1` [Example 29, Cyclopentyl(S)-2-(3-{4-[6-Amino-5-(2,4-difluorobenzoyl)-2-oxo-2H-pyridin-1-yl]phenoxy}propylamino)-3-phenyl propionate], the IC50 was 100 to 1000 nM in assay [1] (Homo sapiens, THP-1) and below 100 nM in assay [2].
For `CC(C)(C)OC(=O)[C@@H](NCCc1ccc(-n2c(N)c(C(=O)c3ccc(F)cc3)ccc2=O)cc1)c1ccccc1` [Example 62, tert-Butyl (2S)-{[2-(4-{6-amino-5-[(4-fluorophenyl)carbonyl]-2-oxopyridin-1(2H)-yl}phenyl)ethyl]amino}(phenyl)ethanoate], the IC50 lay in the range of 100 to 1000 nM in assay [1] (Homo sapiens, THP-1) and 100 to 1000 nM in assay [2].
As for `Cc1cc(C(=O)c2ccc(=O)n(-c3ccc(OCCCN[C@H](C(=O)OC4CCCC4)c4ccccc4)cc3)c2N)ccc1F` [Example 26], the IC50 was 100 to 1000 nM in assay [1] (Homo sapiens, THP-1) and below 100 nM in assay [2].
Take `Cc1cc(C(=O)c2ccc(=O)n(-c3c(F)cc(OCCCN[C@@H](Cc4ccccc4)C(=O)OC4CCCC4)cc3F)c2N)ccc1F` [Example 18, Cyclopentyl(S)-2-(3-{4-[6-Amino-5-(4-fluoro-3-methylbenzoyl)-2-oxo-2H-pyridin-1-yl]-3,5-difluorophenoxy}propylamino)-3-phenylpropionate]: the IC50 was below 100 nM in assay [1] (Homo sapiens, THP-1) and below 100 nM in assay [2].
In the case of `CCOC(=O)[C@H](CC(C)C)NCCCOc1cc(F)c(-n2c(N)c(C(=O)c3ccc(F)cc3)ccc2=O)c(F)c1` [Example 16, Ethyl N-(3-{4-[6-amino-5-(4-fluorobenzoyl)-2-oxopyridin-1(2H)-yl]-3,5-difluorophenoxy}propyl)-L-leucinate], the IC50 in assay [1] (Homo sapiens, THP-1) was below 100 nM; in assay [2], below 100 nM.
Take `Cc1cc(C(=O)c2ccc(=O)n(-c3ccc(OCCCN[C@@H](Cc4ccccc4)C(=O)OC4CCCC4)cc3)c2N)ccc1F` [Example 12, Cyclopentyl(S)-2-(3-{4-[6-Amino-5-(3-methyl-4-fluorobenzoyl)-2-oxo-2H-pyridin-1-yl]phenoxy}propylamino)-3-phenyl propionate]: the IC50 in assay [1] (Homo sapiens, THP-1) is 100 to 1000 nM; in assay [2], below 100 nM.
Regarding `CC(C)C[C@H](NCCCOc1ccc(-n2c(N)c(C(=O)c3ccc(F)cc3F)ccc2=O)cc1)C(=O)OC1CCCC1` [Example 30, Cyclopentyl(S)-2-(3-{4-[6-Amino-5-(2,4-difluorobenzoyl)-2-oxo-2H-pyridin-1-yl]phenoxy}propylamino)-4-methyl pentanoate], the IC50 is below 100 nM in assay [1] (Homo sapiens, THP-1) and below 100 nM in assay [2].
`Nc1c(C(=O)c2ccc(F)cc2)ccc(=O)n1-c1c(F)cc(OCCCN[C@@H](Cc2ccccc2)C(=O)O)cc1F` [Example 90]: in assay [2], the IC50 is below 100 nM.
On to `CC(C)C[C@@H](NCCCOc1cc(F)c(-n2c(N)c(C(=O)c3ccc(F)cc3F)ccc2=O)c(F)c1)C(=O)O` [Example 108, N-(3-{4-[6-amino-5-(2,4-difluorobenzoyl)-2-oxopyridin-1(2H)-yl]-3,5-difluorophenoxy}propyl)-D-leucine], for which, in assay [2], the IC50 was below 100 nM.
With `CC(C)C[C@H](NCCc1ccc(-n2c(N)c(C(=O)c3ccc(F)cc3F)ccc2=O)cc1)C(=O)O` [Example 117, N-[2-(4-{6-amino-5-[(2,4-difluorophenyl)carbonyl]-2-oxopyridin-1(2H)-yl}phenyl)ethyl]-L-leucine], in assay [2], the IC50 is below 100 nM.
